Test results as given in patent US11566007B2, “Ras inhibitors” (Revolution Medicines, Inc., priority 2019, dated 2023).
Read-outs that look alike come from different tables or passages of the source.

Columns and labels:
[1] = tested on: NCI-H358 cells (K-Ras G12C); assay: Potency assay: pERK in NCI-H358 cells; format: cell-based, human; settings: H358 KRAS G12C, read-out: pERK EC50
Outline: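 4 h cpd, 37 °C; 10-pt 3-fold series, 10 mM DMSO top stock, duplicates. Readout pERK: AlphaLISA SureFire Ultra or In-Cell Western (IR-800CW secondary, DRAQ5 DNA stain). IC50, 4-PL fit vs log conc.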

NCI-H358 (K-Ras G12C) = assay: CellTiter-Glo cell viability assay, NCI-H358; format: cell-based, human; settings: NCI-H358, 5-day treatment, class symbols, read-out: Additional H358 Cell Viability assay data (K-Ras G12C, IC50)
Outline: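 Viability of K-Ras mutant lines is measured by ATP luminescence after five days of compound treatment. Percent of DMSO control is calculated and dose-response data are fitted with a four-parameter logistic equation.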

KRAS G12S = KRAS G12S (Homo sapiens (Human), UniProt P01116+P62937, G12S); assay: Ras-Raf (BRAF RBD) disruption / FRET / MOA assay, KRAS G12S; format: biochemical; settings: Ras-Raf disruption/FRET/MOA assay; class symbols; read-out: KRAS G12S FRET data IC50
Chain of KRAS G12S (P01116-2 other isoform, or with tags, fused parts or gaps G12S): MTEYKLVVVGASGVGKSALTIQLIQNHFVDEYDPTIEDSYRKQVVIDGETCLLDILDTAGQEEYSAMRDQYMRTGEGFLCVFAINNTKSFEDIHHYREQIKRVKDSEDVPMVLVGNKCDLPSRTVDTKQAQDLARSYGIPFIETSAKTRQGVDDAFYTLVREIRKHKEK
Chain of KRAS G12S (P62937 whole entry): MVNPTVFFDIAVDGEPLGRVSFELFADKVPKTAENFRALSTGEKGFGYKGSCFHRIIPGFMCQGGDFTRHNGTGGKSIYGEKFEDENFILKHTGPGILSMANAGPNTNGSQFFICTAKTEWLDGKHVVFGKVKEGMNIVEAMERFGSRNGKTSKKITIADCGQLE
Outline: (§1)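 Compound-driven ternary complex of nucleotide-loaded Ras with cyclophilin A, disrupting BRAF RBD binding. 10-point 3-fold dilution from 30 μM final, 3 h at 25° C, then anti-His Eu-W1024 (10 nM) and anti-GST allophycocyanin (50 nM) for 1.5 h. IC50 from TR-FRET ratio decrease versus DMSO.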

KRAS G12D = KRAS G12D (Homo sapiens (Human), UniProt P01116+P62937, G12D); assay: Ras-Raf (BRAF RBD) disruption / FRET / MOA assay, KRAS G12D; format: biochemical; settings: Ras-Raf disruption/FRET/MOA assay; class symbols; read-out: KRAS G12D FRET data IC50
Chain of KRAS G12D (P01116-2 other isoform, or with tags, fused parts or gaps G12D): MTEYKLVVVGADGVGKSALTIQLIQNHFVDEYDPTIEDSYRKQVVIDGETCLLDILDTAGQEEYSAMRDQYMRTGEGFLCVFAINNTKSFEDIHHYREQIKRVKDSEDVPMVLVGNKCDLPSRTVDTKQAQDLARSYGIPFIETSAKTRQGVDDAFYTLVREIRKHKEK
Chain of KRAS G12D (P62937 whole entry): as the sequence (P62937 whole entry) above
Outline: as §1

KRAS Q61H = KRAS Q61H (Homo sapiens (Human), UniProt P01116+P62937, Q61H); assay: Ras-Raf (BRAF RBD) disruption / FRET / MOA assay, KRAS Q61H; format: biochemical; settings: Ras-Raf disruption/FRET/MOA assay; class symbols; read-out: KRAS Q61H FRET data IC50
Chain of KRAS Q61H (P01116-2 other isoform, or with tags, fused parts or gaps Q61H): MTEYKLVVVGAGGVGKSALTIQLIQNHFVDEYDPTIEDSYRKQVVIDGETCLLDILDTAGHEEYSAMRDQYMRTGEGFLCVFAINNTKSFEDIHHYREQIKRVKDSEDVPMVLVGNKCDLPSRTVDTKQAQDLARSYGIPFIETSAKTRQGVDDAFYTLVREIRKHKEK
Chain of KRAS Q61H (P62937 whole entry, canonical isoform): as the sequence (P62937 whole entry) above
Method: The purpose of this biochemical assay is to measure the ability of test compounds to facilitate ternary complex formation between a nucleotide-loaded Ras isoform and cyclophilin A; the resulting ternary complex disrupts binding to a BRAF^RBD construct, inhibiting Ras signaling through a RAF effector.
[…]. Compound is present in plate wells as a 10-point 3-fold dilution series starting at a final concentration of 30 μM. After incubation at 25° C. for 3 hours, a mixture of Anti-His Eu-W1024 and anti-GST allophycocyanin is then added to assay sample wells at final concentrations of 10 nM and 50 nM, respectively, and the reaction incubated for an additional 1.5 hours. […] Compounds that facilitate disruption of a Ras:RAF complex are identified as those eliciting a decrease in the TR-FRET ratio relative to DMSO control wells.
Note—The following protocol describes a procedure for monitoring disruption of K-Ras G12C (GMP-PNP) binding to BRAF^RBD by a compound of the invention. This protocol may also be executed substituting other Ras proteins or nucleotides.
The purpose of this biochemical assay was to measure the ability of test compounds to facilitate ternary complex formation between a nucleotide-loaded K-Ras isoform and Cyclophilin A; the resulting ternary complex disrupts binding to a BRAF^RBD construct, inhibiting K-Ras signaling through a RAF effector. Data is reported as IC50 values.
[…]. Compound was present in plate wells as a 10-point 3-fold dilution series starting at a final concentration of 30 μM. After incubation at 25° C. for 3 hours, a mixture of Anti-His Eu-W1024 and anti-GST allophycocyanin was then added to assay sample wells at final concentrations of 10 nM and 50 nM, respectively, and the reaction incubated for an additional 1.5 hours. […] Compounds that facilitate disruption of a K-Ras:RAF complex were identified as those eliciting a decrease in the TR-FRET ratio relative to DMSO control wells.

K-Ras G12C = K-Ras G12C (Homo sapiens (Human), UniProt P01116+P62937, G12C); assay: Ras-Raf (BRAF RBD) disruption / FRET / MOA assay, KRAS G12C; format: biochemical; settings: KRAS G12C; Ras-Raf disruption/FRET/MOA assay; read-out: IC50* KRAS G12C FRET data
Chain of K-Ras G12C (P01116-2 other isoform, or with tags, fused parts or gaps G12C): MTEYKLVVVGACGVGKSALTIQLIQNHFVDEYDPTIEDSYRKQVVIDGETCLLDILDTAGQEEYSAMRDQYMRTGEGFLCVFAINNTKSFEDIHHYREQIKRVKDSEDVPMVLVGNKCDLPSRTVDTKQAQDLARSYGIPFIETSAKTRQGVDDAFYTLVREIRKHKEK
Chain of K-Ras G12C (P62937 whole entry): as the sequence (P62937 whole entry) above
Outline: as §1

K-Ras G13C = K-Ras G13C (Homo sapiens (Human), UniProt P01116+P62937, G13C); assay: Ras-Raf (BRAF RBD) disruption / FRET / MOA assay, KRAS G13C; format: biochemical; settings: KRAS G13C; Ras-Raf disruption/FRET/MOA assay; read-out: IC50* KRAS G13C FRET data
Chain of K-Ras G13C (P01116-2 other isoform, or with tags, fused parts or gaps G13C): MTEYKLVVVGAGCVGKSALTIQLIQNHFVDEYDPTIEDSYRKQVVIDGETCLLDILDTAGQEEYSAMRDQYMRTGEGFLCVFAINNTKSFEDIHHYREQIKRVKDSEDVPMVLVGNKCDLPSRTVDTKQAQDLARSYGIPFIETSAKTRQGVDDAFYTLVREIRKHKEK
Chain of K-Ras G13C (P62937 whole entry): as the sequence (P62937 whole entry) above
Outline: as §1

KRAS G12V = KRAS G12V (Homo sapiens (Human), UniProt P01116+P62937, G12V); assay: Ras-Raf (BRAF RBD) disruption / FRET / MOA assay, KRAS G12V; format: biochemical; settings: read-out: IC50* KRAS G12V FRET data
Chain of KRAS G12V (P01116-2 other isoform, or with tags, fused parts or gaps G12V): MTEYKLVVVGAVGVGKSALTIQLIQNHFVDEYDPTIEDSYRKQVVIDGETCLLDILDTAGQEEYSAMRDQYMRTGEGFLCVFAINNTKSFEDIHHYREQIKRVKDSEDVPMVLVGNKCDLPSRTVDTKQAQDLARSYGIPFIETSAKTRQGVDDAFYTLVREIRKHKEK
Chain of KRAS G12V (P62937 whole entry): as the sequence (P62937 whole entry) above
Outline: as §1

KRAS WT = KRAS WT (Homo sapiens (Human), UniProt P01116+P62937); assay: Ras-Raf (BRAF RBD) disruption / FRET / MOA assay, KRAS WT; format: biochemical; settings: read-out: IC50* KRAS WT FRET data
Chain of KRAS WT (P01116-2 other isoform, or with tags, fused parts or gaps): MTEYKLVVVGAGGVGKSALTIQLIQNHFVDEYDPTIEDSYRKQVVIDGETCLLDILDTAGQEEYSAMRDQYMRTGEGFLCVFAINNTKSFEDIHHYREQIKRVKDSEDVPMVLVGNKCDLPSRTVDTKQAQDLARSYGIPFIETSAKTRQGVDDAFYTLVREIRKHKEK
Chain of KRAS WT (P62937 whole entry): as the sequence (P62937 whole entry) above
Outline: as §1

KRAS G13D = KRAS G13D (Homo sapiens (Human), UniProt P01116+P62937, G13D); assay: Ras-Raf (BRAF RBD) disruption / FRET / MOA assay, KRAS G13D; format: biochemical; settings: read-out: IC50* KRAS G13D FRET data
Chain of KRAS G13D (P01116-2 other isoform, or with tags, fused parts or gaps G13D): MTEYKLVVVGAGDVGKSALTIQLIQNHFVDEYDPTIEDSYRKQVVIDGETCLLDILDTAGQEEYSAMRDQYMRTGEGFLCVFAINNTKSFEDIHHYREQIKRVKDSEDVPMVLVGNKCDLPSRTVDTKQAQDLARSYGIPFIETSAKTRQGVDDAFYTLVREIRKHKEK
Chain of KRAS G13D (P62937 whole entry): as the sequence (P62937 whole entry) above
Outline: as §1

NRAS G12C = NRAS G12C (Homo sapiens (Human), UniProt P01111+P62937, G12C); assay: Ras-Raf (BRAF RBD) disruption / FRET / MOA assay, NRAS G12C; format: biochemical; settings: read-out: IC50* NRAS G12C FRET data
Chain of NRAS G12C (P01111 whole entry G12C): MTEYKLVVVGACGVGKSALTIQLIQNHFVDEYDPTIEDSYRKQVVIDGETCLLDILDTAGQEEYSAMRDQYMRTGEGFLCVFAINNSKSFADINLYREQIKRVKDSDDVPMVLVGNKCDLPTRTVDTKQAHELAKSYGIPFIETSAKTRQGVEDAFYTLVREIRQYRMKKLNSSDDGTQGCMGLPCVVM
Chain of NRAS G12C (P62937 whole entry): as the sequence (P62937 whole entry) above
Outline: as §1

Compound	EC50 [1]	IC50 (NCI-H358 (K-Ras G12C))	IC50 (KRAS G12S)	IC50 (KRAS G12D)	IC50 (KRAS Q61H)	EC50 ([1]; Homo sapiens, NCI-H358)	IC50 (NCI-H358 (K-Ras G12C); Homo sapiens, NCI-H358, 120 h)	IC50 (K-Ras G12C)	IC50 (K-Ras G13C)	IC50 (KRAS G12V)	IC50 (KRAS WT)	IC50 (KRAS G13D)	IC50 (NRAS G12C)
CCn1c(-c2cccnc2[C@H](C)OC)c2c3cc(ccc31)-c1cccc(c1)C[C@H](NC(=O)[C@H](C(C)C)N(C)C(=O)[C@H]1CCN(C(=O)C#CC(C)(C)N(C)C)C1)C(=O)N1CCC[C@H](N1)C(=O)OCC(C)(C)C2 (atropisomer, axis not shown) [Example A339]	< 5 µM	< 10 nM	1000 to 10000 nM	> 10 µM	1000 to 10000 nM								
C=CC(=O)N1CC[C@H](C(=O)N(C)[C@H](C(=O)N[C@H]2CC3=NC=C(O3)c3ccc4c(c3)c(c(-c3cccnc3[C@H](C)OC)n4CC)CC(C)(C)COC(=O)[C@@H]3CCCN(N3)C2=O)C(C)C)C1 (atropisomer, axis not shown) [Example A331]	< 5 µM	100 to 1000 nM	1000 to 10000 nM	> 10 µM	1000 to 10000 nM								
C=CC(=O)N1CC[C@H](C(=O)N(C)[C@H](C(=O)N[C@H]2Cc3cc(O)cc(c3)-c3ccc4c(c3)c(c(C3=C(COC)CCCC3)n4CC)CC(C)(C)COC(=O)[C@@H]3CCCN(N3)C2=O)C(C)C)C1 [Example A064]			100 to 1000 nM	> 10 µM	100 to 1000 nM								
C=CC(=O)N1CC[C@H](C(=O)N(C)[C@H](C(=O)N[C@H]2Cc3cc(O)cc(c3)-c3ccc4c(c3)c(c(-c3c(F)cccc3CCOC)n4CC)CC(C)(C)COC(=O)[C@@H]3CCCN(N3)C2=O)C(C)C)C1 [Example A025]			1000 to 10000 nM	> 10 µM	1000 to 10000 nM								
C=CC(=O)N1CC[C@H](C(=O)N(C)[C@H](C(=O)N[C@H]2Cc3cc(O)cc(c3)-c3ccc4c(c3)c(c(-c3ccccc3N3CCOCC3)n4CC)CC(C)(C)COC(=O)[C@@H]3CCCN(N3)C2=O)C(C)C)C1 [Example A026]			> 10000 nM	> 10 µM	1000 to 10000 nM								
C=CC(=O)N1CC[C@H](C(=O)N(C)[C@H](C(=O)N[C@H]2Cc3cc(O)cc(c3)-c3ccc4c(c3)c(c(-c3cncc(COC)c3)n4CC)CC(C)(C)COC(=O)[C@@H]3CCCN(N3)C2=O)C(C)C)C1 [Example A083]			100 to 1000 nM	> 10 µM	100 to 1000 nM								
C=CC(=O)N1CC[C@H](C(=O)N(C)[C@H](C(=O)N[C@H]2Cc3cc(O)cc(c3)-c3ccc4c(c3)c(c(-c3cccnc3)n4CC)CC(C)(C)COC(=O)[C@@H]3CCCN(N3)C2=O)C(C)C)C1 [Example A045]			1000 to 10000 nM	> 10 µM	100 to 1000 nM								
C=CC(=O)N1CC[C@H](C(=O)N(C)[C@H](C(=O)N[C@H]2Cc3cc(O)cc(c3)-c3cc(F)c4c(c3)c(c(-c3ccccc3CCOC)n4CC)CC(C)(C)COC(=O)[C@@H]3CCCN(N3)C2=O)C(C)C)C1 [Example A053]				> 10 µM	1000 to 10000 nM								
C=CC(=O)Nc1ncc(C(=O)N(C)[C@H](C(=O)N[C@H]2Cc3cccc(c3)-c3ccc4c(c3)c(c(-c3cccnc3[C@H](C)OC)n4CC)CC(C)(C)COC(=O)[C@@H]3CCCN(N3)C2=O)C(C)C)n1C (atropisomer, axis not shown) [Example A475]	< 5 µM		1000 to 10000 nM	> 10 µM	100 to 1000 nM								
C=CC(=O)N1CC[C@H](C(=O)N(C)[C@H](C(=O)N[C@H]2Cc3cc(O)cc(c3)-c3ccc4c(c3)c(c(-c3cncnc3)n4CC)CC(C)(C)COC(=O)[C@@H]3CCCN(N3)C2=O)C(C)C)C1 [Example A061]			1000 to 10000 nM	> 10 µM	1000 to 10000 nM								
C=CC(=O)N1CC[C@H](C(=O)N(C)[C@H](C(=O)N[C@H]2Cc3cc(O)cc(c3)-c3ccc4c(c3)c(c(-c3cccnc3N3CC(OC)C3)n4CC)CC(C)(C)COC(=O)[C@@H]3CCCN(N3)C2=O)C(C)C)C1 [Example A060]			1000 to 10000 nM	> 10 µM	1000 to 10000 nM								
C=CC(=O)N1CC[C@H](C(=O)N(C)[C@H](C(=O)N[C@H]2Cc3cc(O)cc(c3)-c3ccc4c(c3)c(c(-c3ccc5c(c3)OCCN5C)n4CC)CC(C)(C)COC(=O)[C@@H]3CCCN(N3)C2=O)C(C)C)C1 [Example A050]			1000 to 10000 nM	> 10 µM	1000 to 10000 nM								
CCn1c(-c2cccnc2[C@H](C)OC)c2c3cc(ccc31)-c1cccc(c1)C[C@H](NC(=O)[C@H](C(C)C)N1CC[C@@]3(CCN(C(=O)C#CC(C)(C)N(C)C)C3)C1=O)C(=O)N1CCC[C@H](N1)C(=O)OCC(C)(C)C2 (atropisomer, axis not shown) [Example A414]			1000 to 10000 nM	> 10 µM		< 5 µM	< 10 nM	< 10 nM	1000 to 10000 nM	1000 to 10000 nM	> 10000 nM	> 10000 nM	< 10 nM
C=CC(=O)N1CCN(C(=O)N(C)[C@H](C(=O)N[C@H]2Cc3nc(cs3)-c3ccc4c(c3)c(c(-c3cccnc3[C@H](C)OC)n4CC)CC(C)(C)COC(=O)[C@@H]3CCCN(N3)C2=O)C(C)C)[C@@H](C)C1 (atropisomer, axis not shown) [Example A421]			100 to 1000 nM	1 to 10 µM		< 5 µM	10 to 100 nM	10 to 100 nM	10 to 100 nM	100 to 1000 nM	100 to 1000 nM	100 to 1000 nM	10 to 100 nM
C=CC(=O)N1CC(OC[C@H](C(=O)N[C@H]2Cc3cc(O)cc(c3)-c3ccc4c(c3)c(c(-c3cccnc3COC)n4CC)CC(C)(C)COC(=O)[C@@H]3CCCN(N3)C2=O)C(C)C)C1 [Example A232]			> 10000 nM	> 10 µM		< 5 µM	10 to 100 nM	100 to 1000 nM	100 to 1000 nM	1000 to 10000 nM	1000 to 10000 nM	1000 to 10000 nM	100 to 1000 nM
